Test results published in US20070026465A1, “Method for detecting GAD65 autoreactive T cells newly diagnosed type1 diabetic patients and in the prediabetic period” (priority 2005, published 2007).

System: PBMC of newly diagnosed T1D patients
Test: GAD65 HLA class I tetramer staining and flow cytometry of stimulated PBMC, T1D patients
Type: cell-based, human

VMNILLQYV [GAD65 peptide]
% of CD3+/CD8+/GAD65 reactive T cells (specificity of the response): 6.39%
